For one compound, IC50 results are on record in patent US7875601B2, “Cancer treatment with epothilones” (Novartis AG, priority 1998, dated 2011).

A word on the IC50: it is the concentration at which inhibition is half-maximal.

In the assay the test system is A549 (Lung). As to the kind of experiment: Antiproliferative assay, A549. In kind it is cell-based, human. As to conditions: A549, 5 d exposure, mean ± SD, n = 3 (epothilone B n = 2); read-out: IC50 for growth inhibition. The protocol:
Antiproliferative assays are performed as previously described (Int. J. Cancer 43, 851-6 (1989)). Briefly, cells are seeded at 1.5×10^3 cells/well into 96-well microtiter plates and incubated overnight. Compounds are added in serial dilutions on day 1. The plates are then incubated for an additional 2 to 5 days, allowing for at least one cell doubling (cell line dependent), after which the cells are fixed with 3.3% v/v glutaraldehyde, washed with water and stained with 0.05% w/v methylene blue. After washing, the dye is eluted with 3% v/v HCl and the optical density measured at 665 nm with a SpectraMax 340 (Bucherer, Basel, Switzerland). IC50 values are determined by a computerized system (SoftPro, Bucherer, Basel, Switzerland) using the formula (OD test−OD start)/(OD control−OD start)×100. IC50 is defined as the drug concentration which leads to 50% of cells per well compared to control cultures (100%) at the end of incubation period.

For `C/C(=C\c1csc(C)n1)[C@@H]1C[C@@H]2O[C@]2(C)CCC[C@H](C)[C@H](O)[C@@H](C)C(=O)C(C)(C)[C@@H](O)CC(=O)O1` [epothilone B], the IC50 was 0.19 ± 0.12 nM.
